PubChem BioAssay (NCI)
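Cells were grown in 96-well plates and exposed to each compound for 48 hours at five concentrations; endpoints were interpolated linearly between bracketing concentrations, or set to the highest concentration if not reached. Abbreviation: GI50, concentration required for 50% inhibition of growth. TGI is the concentration that stops growth completely.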

Experiments:
Assay in all cases: inhibition of tumour cell growth, NCI panel, 48 h
COLO 205 colon = system: COLO 205 colon
M14 melanoma = system: M14 melanoma
HOP-92 NSCLC = system: HOP-92 NSCLC
NCI-H226 lung = system: NCI-H226 lung
CCRF-CEM leukemia = system: CCRF-CEM leukemia
SW-620 colon = system: SW-620 colon
NCI-H522 lung = system: NCI-H522 lung
HCC-2998 colon = system: HCC-2998 colon
SF-295 CNS = system: SF-295 CNS
UACC-257 melanoma = system: UACC-257 melanoma

SMILES	TGI (COLO 205 colon) [µM]	TGI (M14 melanoma) [µM]	TGI (HOP-92 NSCLC) [µM]	TGI (NCI-H226 lung) [µM]	TGI (CCRF-CEM leukemia) [µM]	TGI (SW-620 colon) [µM]	TGI (NCI-H522 lung) [µM]	TGI (HCC-2998 colon) [µM]	TGI (SF-295 CNS) [µM]	TGI (UACC-257 melanoma) [µM]	GI50 (COLO 205 colon) [µM]	GI50 (M14 melanoma) [µM]	GI50 (NCI-H226 lung) [µM]	GI50 (CCRF-CEM leukemia) [µM]	GI50 (SW-620 colon) [µM]	GI50 (NCI-H522 lung) [µM]	GI50 (SF-295 CNS) [µM]	GI50 (UACC-257 melanoma) [µM]	GI50 (HCC-2998 colon) [µM]	GI50 (HOP-92 NSCLC) [µM]
COc1ccc(-c2cc(=O)c3cc4c(cc3[nH]2)OCO4)c(OC)c1OC	> 100	> 100	> 100	> 100	> 100	> 100	> 100	> 100	> 100											
CCCc1[nH]nc(CCC(=O)N(Cc2ccccc2)Cc2ccccc2)c1CC	> 100	> 100		> 100	> 100	> 100	> 100	> 100	> 100	> 100										
C1CCSCCCCSCCCCSCCCCSC1	> 100	> 100	> 100	> 100		> 100	> 100	> 100	> 100	> 100										
C=C1C(=O)O[C@H]2[C@H]1[C@H](OC(=O)/C(C)=C\C)CC(=C)[C@@H]1[C@H](O)[C@H]3O[C@@]3(C)[C@@]12O	> 100	> 100	> 100		> 100	> 100	> 100	> 100	> 100											
O=C(Cn1ccc(=O)[nH]c1=O)Nc1ccc(C(=O)O)c(O)c1	> 100	> 100	> 100	> 100	> 100	> 100	> 100		> 100	> 100										
COc1ccc(-c2ccc(/C=N/n3c(COc4ccc(Cl)cc4Cl)n[nH]c3=S)o2)c([N+](=O)[O-])c1	> 100	31.6		11.9	42	97.6	> 100		36.5		32.9	16	2.52	16.3	30.7	29.7	18			
CN(C)/C=C/c1nnc([N+](=O)[O-])s1	10.3	29.1		41.9		33.1	3.27	33.2	39.4	27.2										
COC(=O)CCC(NC(=S)N/N=C(\C)c1nccs1)C(=O)OC (stereo not drawn)	34.1	> 100	> 100	> 100		> 100	78.4	> 100	> 100	> 100										
COC(=O)c1csnn1	> 100	> 100		> 100	> 100	> 100	> 100	> 100	> 100	> 100										
COc1c2c(c3c(c1CCC(=O)O)OC(C)(C)C=C3)OC(C)(C)C=C2	> 100	> 100		> 100		> 100	> 100	> 100	> 100	> 100										
O=C(CC(=O)CC(O)(C(F)(F)F)C(F)(F)F)CC(O)(C(F)(F)F)C(F)(F)F	> 10	> 10	> 10	> 10	> 10	> 10	> 10		> 10	> 10										
COc1ccc(C(=O)/C=C/c2ccc(/C=C/c3cc(OC)c(OC)c(OC)c3)cc2)cc1	> 100	> 100		22.8	> 100	> 100	30.7	> 100	> 100	> 100	13.7	9.61	3.57	4.15	4.5	3.3	9.01	9	38.5	
Nc1c(C(=O)Nc2cccc([N+](=O)[O-])c2)sc2nc3c(cc12)C(O)CCC3 (stereo not drawn)	> 100	> 100	> 67	> 100		> 100	> 100	> 100	> 54	> 100	3.51	3.39	29.6		3.48	6.11	4.35	> 29.8	> 100	9.54
C=CCC1([C@H](C)[C@@H](OC(C)=O)c2cc(OC)c(OC)c(OC)c2)C[C@@H](OC)CCC1=O (stereo partly drawn)	42.2	30.4	> 100	44.2	51.7	38.6	25.4		39.7											
COc1ccc2nc3cc([N+](=O)[O-])ccc3c(NCCCCCN(C)C)c2c1	1.68	0.522	0.49	1.68	3.09	3	0.0907		2.52	2.66	0.241	0.216	0.309	0.295	0.272	0.03	0.353	1.03		0.148
Cc1cc(N(CCC#N)S(=O)(=O)c2ccccc2)ccc1/C=C1N=C(/C=C/c2ccccc2)OC\1=O	> 100	> 100		> 100	> 100	> 100	> 100	> 100	> 100	> 100										
CCCN=Cc1cc(Cc2ccc(O)c(C=NCCC)c2)ccc1O	34.2	7.35	8.03	51.2		15.9	45.1	27.8	52.5	60.8										
COc1cc(/C=C2\C(=O)N(C(=O)Cc3ccccc3)N=C2C)ccc1O	> 100	> 100		> 100	> 100	> 100	> 100	> 100	> 100	> 100										

SMILES	TGI (COLO 205 colon) [µM]	TGI (M14 melanoma) [µM]	TGI (HOP-92 NSCLC) [µM]	TGI (NCI-H226 lung) [µM]	TGI (CCRF-CEM leukemia) [µM]	TGI (SW-620 colon) [µM]	TGI (NCI-H522 lung) [µM]	TGI (HCC-2998 colon) [µM]	TGI (SF-295 CNS) [µM]	TGI (UACC-257 melanoma) [µM]	GI50 (COLO 205 colon) [µM]	GI50 (M14 melanoma) [µM]	GI50 (NCI-H226 lung) [µM]	GI50 (CCRF-CEM leukemia) [µM]	GI50 (SW-620 colon) [µM]	GI50 (NCI-H522 lung) [µM]	GI50 (SF-295 CNS) [µM]	GI50 (UACC-257 melanoma) [µM]	GI50 (HCC-2998 colon) [µM]	GI50 (HOP-92 NSCLC) [µM]
Nc1ccn(Cc2ccc(C34CC5CC(CC(C5)C3)C4)c(O)c2)c(=O)n1	> 100	> 100	71.4	> 100		> 100	> 100	> 100	> 100		> 100	> 100	> 100		> 100	40.9	31.5		32.1	22.5
O=C1OC(=O)C(c2c[nH]c3ccccc23)=C1c1c[nH]c2ccccc12	> 25	> 25		> 25	> 25	> 25	> 25	> 25	> 25	> 25	> 25	> 25	> 25	> 25	> 25	> 25	> 25	> 25	> 25	
COc1ccccc1NC(=O)CC(=O)N1N=C(C)C(N=Nc2ccc(S(N)(=O)=O)cc2)C1=O (stereo not drawn)	> 100	> 100	> 100	> 100		> 100	> 100	> 100	> 100	> 100										
CC1SC(c2c(Cl)cccc2Cl)N(NC(=O)c2[nH]c3ccc(F)cc3c2-c2ccccc2)C1=O (stereo not drawn)	7.48	30.2			42.5	11.2	5.83	> 100	3.71	44	2.69	3.96		4.79	3.19	1.87	1.9	4.69	25	
N#CC(C(=O)/C(=N/NC(=O)c1ccccc1O)C(C#N)c1ccc(Cl)cc1)c1ccc(Cl)cc1 (stereo not drawn)	86.5	38.8		31.8	> 100	29.1			29.9	27.7										
Cc1sc(C(=O)Nc2cc(C(=O)NCCCN(C)C)n(C)c2)cc1NC(=O)CCCN1C(=O)c2cccc3cccc(c23)C1=O	> 100	> 100	> 100	> 100	> 100	> 100	> 100	> 100	> 100		> 100	> 100	> 100	> 100	> 100	> 100	> 100		> 100	> 100
O=Cc1cn(C(=O)c2ccccc2)c2ccccc12		> 100		> 100	> 100	> 100		> 100	> 100	> 100										
O=C(O)c1ccc([Se][Se]c2ccc(C(=O)O)cc2)cc1	74	35.6		76.5		> 100	52	> 100	54.7											
COC(=O)CCC1CCc2c(OC)ccc(O)c2C1=O (stereo not drawn)	> 100	> 100		84.1	> 100	> 100	> 100	> 100	> 100	> 100										
CCN(Cc1ccc(F)c(F)c1)c1ccc(CO)c(Cl)c1	7.48	30.2	12.2		47	21	30.2	21.6	12.1	0.432	2.32	14		15.1	0.753	13.2	0.51	0.138	5.59	0.835
C[N+](C)(C)CC(=O)N/N=C(/Cc1nc2c3c(ccc2[nH]c1=O)C(=O)c1ccccc1C3=O)C(=O)Nc1ccc(Cl)c(Cl)c1	> 100	> 100	99.8		> 100	> 100	> 100	> 100	> 100	> 100										
Cc1c(C(=O)/C=C/c2csc3ccccc23)[n+](=O)c2ccccc2n1[O-]		3.21		4.94	7.56	2.81	3.88	3.38	4.83	3.73		1.57	1.82	2.42	1.49	1.78	1.94	1.81	1.91	
CN(C)S(=O)(=O)c1ccc(NC(=O)COC(=O)c2ccc(S(=O)(=O)N3CCCCC3)cc2)cc1	> 100		> 100	> 100	> 100	> 100	> 100	> 100	> 100	> 100	> 100		> 100	> 100	> 100	> 100	> 100	> 100	> 100	> 100
CC1(C)SC2C(NC(=O)C(N)c3ccccc3)C(=O)N2C1C(=O)O (stereo not drawn)	> 100	> 100	> 100		> 100	> 100	> 100	> 100	> 100	> 100										
Cc1cccc(NC(=O)CC(=O)N2N=C(N(CCC#N)c3ccc(Cl)cc3)CC2c2ccccc2)c1 (stereo not drawn)	> 100	> 100	> 100		> 100	> 100	> 100	> 100	> 100	> 100										
COc1nc(NC2OCC(OC(C)=O)C(OC(C)=O)C2OC(C)=O)c(N=CC=Nc2c(NC3OCC(OC(C)=O)C(OC(C)=O)C3OC(C)=O)nc(OC)n(C)c2=O)c(=O)n1C (stereo not drawn)	> 100	> 100	> 100			> 100	> 100	> 100	> 100	> 100										
COC(=O)[C@@H](C)C[C@H](Cc1ccccc1)NC(=O)c1nc([C@@H](C[C@H](C(C)C)N(C)C(=O)[C@@H](NC(=O)[C@H]2CCCCN2C)C(C)C)OC(C)=O)sc1C	0.00926		16.5	> 16.7	> 16.7	> 16.7	< 0.00167	> 16.7	> 16.7		< 0.00167		0.0275	< 0.00167	< 0.00167	< 0.00167	< 0.00167		< 0.00167	0.00323
O=c1c2c([nH]c3cc4c(cc13)OCO4)-c1ccccc1CC2	> 100	> 100		> 100	> 100	> 100		> 100	> 100	> 100										
